Structures can show the parent of a compound that is named as a salt.
Each compound was assayed against T1, TBK1 (Homo sapiens, UniProt Q9UHD2) (assay: TBK1 protein kinase assay ([γ-33P]ATP, P81 filterplates)). Settings: 50 μM ATP; read-out: Potency (TBK1 IC50 potency score).
T1 construct: All protein kinases were of human origin and encoded full length proteins, unless indicated otherwise; His6; made in house; host or cells: insect Sf21 cells
T1 sequence (Q9UHD2 1-729): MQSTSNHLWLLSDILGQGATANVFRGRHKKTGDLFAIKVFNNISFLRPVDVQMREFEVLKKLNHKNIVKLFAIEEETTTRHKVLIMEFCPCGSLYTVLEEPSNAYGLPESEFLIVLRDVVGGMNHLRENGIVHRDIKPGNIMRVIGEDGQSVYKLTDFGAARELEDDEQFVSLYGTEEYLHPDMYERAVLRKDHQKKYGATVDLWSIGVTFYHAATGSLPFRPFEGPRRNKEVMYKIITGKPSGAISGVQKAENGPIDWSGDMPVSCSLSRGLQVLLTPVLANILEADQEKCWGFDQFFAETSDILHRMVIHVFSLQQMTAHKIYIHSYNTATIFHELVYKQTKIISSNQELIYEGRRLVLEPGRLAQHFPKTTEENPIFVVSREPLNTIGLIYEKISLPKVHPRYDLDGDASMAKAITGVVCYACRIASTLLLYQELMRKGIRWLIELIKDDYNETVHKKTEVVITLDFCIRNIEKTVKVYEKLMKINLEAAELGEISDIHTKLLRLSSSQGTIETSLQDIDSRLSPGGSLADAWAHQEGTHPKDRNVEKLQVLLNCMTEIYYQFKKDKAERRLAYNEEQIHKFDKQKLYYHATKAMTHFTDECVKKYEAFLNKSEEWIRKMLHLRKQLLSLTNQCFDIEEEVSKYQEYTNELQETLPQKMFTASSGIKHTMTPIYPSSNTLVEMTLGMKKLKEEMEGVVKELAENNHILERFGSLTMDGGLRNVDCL
Format: biochemical
Text: All protein kinases were of human origin and encoded full length proteins, unless indicated otherwise. They were either expressed as glutathione S-transferase (GST) fusion proteins in Escherichia Coli or as hexahistidine (His6)-tagged proteins in insect Sf21 cells. GST fusion proteins were purified by affinity chromatography on glutathione-Sepharose, and His6-tagged proteins on nickel/nitriloacetate-agarose. The procedures for expressing some of the protein kinases used herein have been detailed previously.^8,9 The following sections outline the DNA vectors synthesised and the procedures used to express and purifying protein kinases that have not been reported previously.
The following kinases were expressed in Sf21 cells: Aurora B and Aurora C, extra-cellular signal-regulated kinase 8 (ERK8), microtubule affinity regulating kinase 3 (MARK3), protein kinase Bα[118-480][S473D], protein kinase Bβ (PKBβ[120-481][S474D], 3-phosphoinositide-dependent protein kinase-1 [52-556]
Assays were performed for 30 min using Multidrop Micro reagent dispensers (Thermo Electron Corporation, Waltham, Mass. 02454, USA) in a 96-well format. The concentration of magnesium acetate in the assays was 10 mM and the [γ-33P] ATP (800 cpm/pmol) was used at 5, 20 or 50 μM as indicated, in order to be at or below the Km for ATP for each enzyme. Protein kinases assayed at 5 μM ATP were: —ERK1, ERK8, PKBα, MARK3, Aurora C. Protein kinases assayed at 20 μM ATP were: —JNK1, PDK1, CHK1, CHK2, CDK2 and Aurora B. Protein kinases assayed at 50 μM ATP were: —MNK2, IKKepsilon and TBK1.
The assays were initiated with MgATP, stopped by addition of 5 μl of 0.5 M orthophosphoric acid and spotted on to P81 filterplates using a unifilter harvester (PerkinElmer, Boston, Mass. 02118, USA). The IC50 values of inhibitors were determined after carrying out assays at 10 different concentrations of each compound.
ERK1 and ERK8 were both assayed against myelin basic protein (MBP, 0.33 mg/ml). MARK3 was assayed against the peptide […] (300 μM), MNK2 against the eIF4E protein (0.5 mg/ml). PKBβ was assayed against the peptide […] (30 μM). TBK1 were assayed against ([…]) (300 μM). The substrates used for other protein kinases were described previously.^8,9
Unless stated otherwise, enzymes were diluted in 50 mM Tris/HCl pH 7.5, 0.1 mM EGTA, 1 mg/ml BSA, 0.1% (v/v) 2-mercaptoethanol and assayed in 50 mM Tris/HCl pH 7.5, 0.1 mM EGTA, 0.1% (v/v) 2-mercaptoethanol.

First: O=C(NCCCNc1nc(Nc2cccc(N3CCOCC3)c2)ncc1C1CC1)c1cccs1 [Example 46, Thiophene-2-carboxylic acid {3-[5-cyclopropyl-2-(3-morpholin-4-yl-phenylamino)-pyrimidin-4-ylamino]-propyl}-amide trifluoroacetic acid salt]
Second: O=C(NCCCNc1nc(Nc2ccc(N3CCOCC3)nc2)ncc1C1CC1)c1cccs1 [Example 54, Thiophene-2-carboxylic acid {3-[5-cyclopropyl-2-(6-morpholin-4-yl-pyridin-3-ylamino)-pyrimidin-4-ylamino]-propyl}-amide]
The IC50 of the first is higher: 100 to 1000 nM for the first, under 100 nM for the second. The second is the more potent here.

`O=C(NCCCNc1nc(Nc2cccc(N3CCCC3=O)c2)ncc1C1CC1)C1CCC1` [Example 48, Cyclobutanecarboxylic acid (3-{5-cyclopropyl-2-[3-(2-oxo-pyrrolidin-1-yl)-phenylamino]-pyrimidin-4-ylamino}-propyl)-amide] and `O=C(O)c1cccc(Nc2ncc(C3CC3)c(NCCCNC(=O)C3CCC3)n2)c1` [Example 71, 3-{4-[3-(Cyclobutanecarbonyl-amino)-propylamino]-5-cyclopropyl-pyrimidin-2-ylamino}-benzoic acid hydrochloride salt] cannot be ordered by IC50: under 100 nM for the first, under 100 nM for the second.

`O=C(NCCCNc1nc(Nc2cccc(NC(=O)N3CCCC3)c2)ncc1C1CC1)c1cccs1` [Example 49, Pyrrolidine-1-carboxylic acid [3-(5-cyclopropyl-4-{3-[(thiophene-2-carbonyl)-amino]-propylamino}-pyrimidin-2-ylamino)-phenyl]-amide] and `CC(=O)Nc1cccc(Nc2ncc(C3CC3)c(NCCCNC(=O)c3cccs3)n2)c1` [Example 51, Thiophene-2-carboxylic acid {3-[2-(3-acetylamino-phenylamino)-5-cyclopropyl-pyrimidin-4-ylamino]-propyl}-amide] cannot be ordered by IC50: under 100 nM for the first, under 100 nM for the second.

First: O=C(NCCCNc1nc(Nc2ccccc2F)ncc1C1CC1)c1cccs1 [Example 52, Thiophene-2-carboxylic acid {3-[5-cyclopropyl-2-(2-fluoro-phenylamino)-pyrimidin-4-ylamino]-propyl}-amide]
Second: Cc1ccccc1Nc1ncc(C2CC2)c(NCCCNC(=O)c2cccs2)n1 [Example 59, Thiophene-2-carboxylic acid [3-(5-cyclopropyl-2-o-tolylamino-pyrimidin-4-ylamino)-propyl]-amide]
The IC50 of the first is lower: 100 to 1000 nM for the first, 1000 to 10000 nM for the second.

First: O=C(NCCCNc1nc(Nc2ccc3cnccc3c2)ncc1C1CC1)c1cccs1 [Example 53, Thiophene-2-carboxylic acid {3-[5-cyclopropyl-2-(isoquinolin-6-ylamino)-pyrimidin-4-ylamino]-propyl}-amide]
Second: O=C(NCCCNc1nc(Nc2ccncc2)ncc1C1CC1)c1cccs1 [Example 63, Thiophene-2-carboxylic acid {3-[5-cyclopropyl-2-(pyridin-4-ylamino)-pyrimidin-4-ylamino]-propyl}-amide]
The IC50 of the first is higher: 1000 to 10000 nM for the first, 100 to 1000 nM for the second. The second is the more potent here.

Compared with `O=C(NCCCNc1nc(Nc2cccc(Cl)c2)ncc1C1CC1)c1cccs1` [Example 55, Thiophene-2-carboxylic acid {3-[2-(3-chloro-phenylamino)-5-cyclopropyl-pyrimidin-4-ylamino]-propyl}-amide], `Nc1cccc(Nc2ncc(C3CC3)c(NCCCNC(=O)c3cccs3)n2)c1` [Example 69, Thiophene-2-carboxylic acid {3-[2-(3-amino-phenylamino)-5-cyclopropyl-pyrimidin-4-ylamino]-propyl}-amide] is lower in IC50: 100 to 1000 nM for the first, under 100 nM for the second. The second is the more potent here.

`O=C(NCCCNc1nc(Nc2ccc3nccnc3c2)ncc1C1CC1)c1cccs1` [Example 56, Thiophene-2-carboxylic acid {3-[5-cyclopropyl-2-(quinoxalin-6-ylamino)-pyrimidin-4-ylamino]-propyl}-amide] and `Cc1nc2cc(Nc3ncc(C4CC4)c(NCCCNC(=O)c4cccs4)n3)ccc2s1` [Example 60, Thiophene-2-carboxylic acid {3-[5-cyclopropyl-2-(2-methyl-benzothiazol-5-ylamino)-pyrimidin-4-ylamino]-propyl}-amide] fall in the same range of IC50: 100 to 1000 nM for the first, 100 to 1000 nM for the second.

`O=C(NCCCNc1nc(Nc2ccccc2)ncc1C1CC1)c1cccs1` [Example 57, Thiophene-2-carboxylic acid [3-(5-cyclopropyl-2-phenylamino-pyrimidin-4-ylamino)-propyl]-amide] and `O=C(NCCCNc1nc(Nc2ccc(F)cc2)ncc1C1CC1)c1cccs1` [Example 58, Thiophene-2-carboxylic acid {3-[5-cyclopropyl-2-(4-fluoro-phenylamino)-pyrimidin-4-ylamino]-propyl}-amide] fall in the same range of IC50: 100 to 1000 nM for the first, 100 to 1000 nM for the second.

First: N#Cc1cccc(Nc2ncc(C3CC3)c(NCCCNC(=O)c3cccs3)n2)c1 [Example 61, Thiophene-2-carboxylic acid {3-[2-(3-cyano-phenylamino)-5-cyclopropyl-pyrimidin-4-ylamino]-propyl}-amide]
Second: O=C(NCCCNc1nc(Nc2ccc3[nH]c(C(F)(F)F)nc3c2)ncc1C1CC1)c1cccs1 [Example 62, Thiophene-2-carboxylic acid {3-[5-cyclopropyl-2-(2-trifluoromethyl-1H-benzimidazol-5-ylamino)-pyrimidin-4-ylamino]-propyl}-amide]
The IC50 of the first is lower: 100 to 1000 nM for the first, 1000 to 10000 nM for the second.

`O=C(NCCCNc1nc(Nc2cncc(F)c2)ncc1C1CC1)C1CCC1` [Example 64, Cyclobutanecarboxylic acid {3-[5-cyclopropyl-2-(5-fluoro-pyridin-3-ylamino)-pyrimidin-4-ylamino]-propyl}-amide] and `O=C(NCCCNc1nc(Nc2cc(F)cc(F)c2)ncc1C1CC1)C1CCC1` [Example 72, Cyclobutanecarboxylic acid {3-[5-cyclopropyl-2-(3,5-difluoro-phenylamino)-pyrimidin-4-ylamino]-propyl}-amide. Hydrochloride salt] cannot be ordered by IC50: under 100 nM for the first, under 100 nM for the second.

`O=C(NCCCNc1nc(Nc2cccnc2)ncc1C1CC1)C1CCC1` [Example 65, Cyclobutanecarboxylic acid {3-[5-cyclopropyl-2-(pyridin-3-ylamino)-pyrimidin-4-ylamino]-propyl}-amide] and `O=C(NCCCNc1nc(Nc2cccnc2)ncc1C1CC1)C1CCCC1` [Example 66, Cyclopentanecarboxylic acid {3-[5-cyclopropyl-2-(pyridin-3-ylamino)-pyrimidin-4-ylamino]-propyl}-amide] cannot be ordered by IC50: under 100 nM for the first, under 100 nM for the second.

`CC(=O)Nc1cccc(Nc2ncc(C3CC3)c(NCCCNC(=O)C3CCCC3)n2)c1` [Example 67, Cyclopentanecarboxylic acid {3-[2-(3-acetylamino-phenylamino)-5-cyclopropyl-pyrimidin-4-ylamino]-propyl}-amide] and `CC(=O)Nc1cccc(Nc2ncc(C3CC3)c(NCCCNC(=O)C3CCC3)n2)c1` [Example 68, Cyclobutanecarboxylic acid {3-[2-(3-acetylamino-phenylamino)-5-cyclopropyl-pyrimidin-4-ylamino]-propyl}-amide] cannot be ordered by IC50: under 100 nM for the first, under 100 nM for the second.

`O=C(NCCCNc1nc(Nc2cccc(CO)c2)ncc1C1CC1)C1CCC1` [Example 70, Cyclobutanecarboxylic acid {3-[5-cyclopropyl-2-(3-hydroxymethyl-phenylamino)-pyrimidin-4-ylamino]-propyl}-amide. xHCl salt] gave an IC50 of under 100 nM.

From US20100056524A1, “Compound” (priority 2008, published 2010)
